Data published in PubChem BioAssay (NCI).
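Following 48 hours of exposure in 96-well plates, responses at five concentrations were used to interpolate endpoints linearly. Definition used: TGI = concentration required for complete inhibition of growth.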

How the values were obtained:
Assay in all cases: growth of human tumour cells (NCI), 48 h
786-0 renal = system: 786-0 renal
A498 renal = system: A498 renal
A549 NSCLC = system: A549 NSCLC
ACHN renal = system: ACHN renal
BT-549 breast = system: BT-549 breast
CAKI-1 renal = system: CAKI-1 renal
CCRF-CEM leukemia = system: CCRF-CEM leukemia
COLO 205 colon = system: COLO 205 colon
DLD-1 colon = system: DLD-1 colon
DMS 114 small cell lung = system: DMS 114 small cell lung
DMS 273 small cell lung = system: DMS 273 small cell lung
DU-145 prostate = system: DU-145 prostate
EKVX NSCLC = system: EKVX NSCLC
HCC-2998 colon = system: HCC-2998 colon
HCT-116 colon = system: HCT-116 colon
HCT-15 colon = system: HCT-15 colon
HL-60(TB) leukemia = system: HL-60(TB) leukemia
HOP-18 NSCLC = system: HOP-18 NSCLC
HOP-62 NSCLC = system: HOP-62 NSCLC
HOP-92 NSCLC = system: HOP-92 NSCLC
HS 578T breast = system: HS 578T breast
HT29 colon = system: HT29 colon
IGROV1 ovarian = system: IGROV1 ovarian
K-562 leukemia = system: K-562 leukemia
KM12 colon = system: KM12 colon
LOX IMVI melanoma = system: LOX IMVI melanoma
LXFL 529 NSCLC = system: LXFL 529 NSCLC
M14 melanoma = system: M14 melanoma
M19-MEL melanoma = system: M19-MEL melanoma
MALME-3M melanoma = system: MALME-3M melanoma
MCF7 breast = system: MCF7 breast
MDA-MB-231 breast = system: MDA-MB-231 breast
MDA-MB-435 = system: MDA-MB-435
MOLT-4 leukemia = system: MOLT-4 leukemia
NCI-H226 lung = system: NCI-H226 lung
NCI-H23 lung = system: NCI-H23 lung
NCI-H460 lung = system: NCI-H460 lung
NCI-H522 lung = system: NCI-H522 lung
OVCAR-3 ovarian = system: OVCAR-3 ovarian
OVCAR-4 ovarian = system: OVCAR-4 ovarian
OVCAR-5 ovarian = system: OVCAR-5 ovarian
OVCAR-8 ovarian = system: OVCAR-8 ovarian
PC-3 prostate = system: PC-3 prostate
RPMI-8226 leukemia = system: RPMI-8226 leukemia
RXF 393 renal = system: RXF 393 renal
SF-268 CNS = system: SF-268 CNS
SF-295 CNS = system: SF-295 CNS
SF-539 CNS = system: SF-539 CNS
SK-MEL-2 melanoma = system: SK-MEL-2 melanoma
SK-MEL-28 melanoma = system: SK-MEL-28 melanoma
SK-MEL-5 melanoma = system: SK-MEL-5 melanoma
SK-OV-3 ovarian = system: SK-OV-3 ovarian
SN12C renal = system: SN12C renal
SNB-19 CNS = system: SNB-19 CNS
SNB-75 CNS = system: SNB-75 CNS
SNB-78 CNS = system: SNB-78 CNS
SR leukemia = system: SR leukemia
SW-620 colon = system: SW-620 colon
T-47D breast = system: T-47D breast
TK-10 renal = system: TK-10 renal
U251 CNS = system: U251 CNS
UACC-257 melanoma = system: UACC-257 melanoma
UACC-62 melanoma = system: UACC-62 melanoma
UO-31 renal = system: UO-31 renal
XF 498 CNS = system: XF 498 CNS

C=C(C)[C@H]1Cc2c(ccc3c2O[C@@H]2COc4cc(OC)c(OC)cc4[C@@H]2C3=O)O1
TGI (786-0 renal): > 86.2 µM | TGI (A498 renal): 63.3 µM | TGI (A549 NSCLC): > 100 µM | TGI (ACHN renal): 87 µM | TGI (BT-549 breast): 9.23 µM | TGI (CAKI-1 renal): 63.8 µM | TGI (CCRF-CEM leukemia): 71.1 µM | TGI (COLO 205 colon): 0.539 µM | TGI (DLD-1 colon): > 100 µM | TGI (DMS 114 small cell lung): 0.145 µM | TGI (DMS 273 small cell lung): 18.3 µM | TGI (DU-145 prostate): 38.9 µM | TGI (EKVX NSCLC): > 88.4 µM | TGI (HCC-2998 colon): 8.12 µM | TGI (HCT-116 colon): 23.5 µM | TGI (HCT-15 colon): 40.4 µM | TGI (HL-60(TB) leukemia): 0.381 µM | TGI (HOP-18 NSCLC): > 89.7 µM | TGI (HOP-62 NSCLC): 40.5 µM | TGI (HOP-92 NSCLC): 18.1 µM | TGI (HS 578T breast): 0.488 µM | TGI (HT29 colon): 4.09 µM | TGI (IGROV1 ovarian): > 100 µM | TGI (K-562 leukemia): > 72.1 µM | TGI (KM12 colon): 14.3 µM | TGI (LOX IMVI melanoma): 8.04 µM | TGI (LXFL 529 NSCLC): 7.87 µM | TGI (M14 melanoma): 24.7 µM | TGI (M19-MEL melanoma): > 73 µM | TGI (MALME-3M melanoma): 48 µM | TGI (MCF7 breast): > 84.2 µM | TGI (MDA-MB-231 breast): 44.7 µM | TGI (MDA-MB-435): 0.0642 µM | TGI (MOLT-4 leukemia): 45.2 µM | TGI (NCI-H226 lung): 31.3 µM | TGI (NCI-H23 lung): 14.1 µM | TGI (NCI-H460 lung): 15.8 µM | TGI (NCI-H522 lung): 0.404 µM | TGI (OVCAR-3 ovarian): 3.05 µM | TGI (OVCAR-4 ovarian): 68.5 µM | TGI (OVCAR-5 ovarian): > 100 µM | TGI (OVCAR-8 ovarian): 10.1 µM | TGI (PC-3 prostate): 47.5 µM | TGI (RPMI-8226 leukemia): 8.84 µM | TGI (RXF 393 renal): 6.41 µM | TGI (SF-268 CNS): 28.2 µM | TGI (SF-295 CNS): 38 µM | TGI (SF-539 CNS): 3.36 µM | TGI (SK-MEL-2 melanoma): 25.3 µM | TGI (SK-MEL-28 melanoma): 81.4 µM | TGI (SK-MEL-5 melanoma): 3.04 µM | TGI (SK-OV-3 ovarian): 48.8 µM | TGI (SN12C renal): 67.5 µM | TGI (SNB-19 CNS): > 100 µM | TGI (SNB-75 CNS): 60.5 µM | TGI (SNB-78 CNS): 45.3 µM | TGI (SR leukemia): 22.2 µM | TGI (SW-620 colon): 82.8 µM | TGI (T-47D breast): > 97.1 µM | TGI (TK-10 renal): 54.5 µM | TGI (U251 CNS): 30.9 µM | TGI (UACC-257 melanoma): 36.7 µM | TGI (UACC-62 melanoma): 44.7 µM | TGI (UO-31 renal): 58.8 µM | TGI (XF 498 CNS): 0.302 µM
